Results reported in the Kinase Knowledgebase extract (Sharma et al. 2016).
Several values for one entry are separate records, joined by “and”; a condition that tells them apart may be missing. Equal entries are not always repeated.

Target: EGFR (Human), P00533 [T790M/L858R]
Settings: nci-h1975

Chain of EGFR (Human), P00533 [T790M/L858R] (P00533 whole entry T790M/L858R, looked up): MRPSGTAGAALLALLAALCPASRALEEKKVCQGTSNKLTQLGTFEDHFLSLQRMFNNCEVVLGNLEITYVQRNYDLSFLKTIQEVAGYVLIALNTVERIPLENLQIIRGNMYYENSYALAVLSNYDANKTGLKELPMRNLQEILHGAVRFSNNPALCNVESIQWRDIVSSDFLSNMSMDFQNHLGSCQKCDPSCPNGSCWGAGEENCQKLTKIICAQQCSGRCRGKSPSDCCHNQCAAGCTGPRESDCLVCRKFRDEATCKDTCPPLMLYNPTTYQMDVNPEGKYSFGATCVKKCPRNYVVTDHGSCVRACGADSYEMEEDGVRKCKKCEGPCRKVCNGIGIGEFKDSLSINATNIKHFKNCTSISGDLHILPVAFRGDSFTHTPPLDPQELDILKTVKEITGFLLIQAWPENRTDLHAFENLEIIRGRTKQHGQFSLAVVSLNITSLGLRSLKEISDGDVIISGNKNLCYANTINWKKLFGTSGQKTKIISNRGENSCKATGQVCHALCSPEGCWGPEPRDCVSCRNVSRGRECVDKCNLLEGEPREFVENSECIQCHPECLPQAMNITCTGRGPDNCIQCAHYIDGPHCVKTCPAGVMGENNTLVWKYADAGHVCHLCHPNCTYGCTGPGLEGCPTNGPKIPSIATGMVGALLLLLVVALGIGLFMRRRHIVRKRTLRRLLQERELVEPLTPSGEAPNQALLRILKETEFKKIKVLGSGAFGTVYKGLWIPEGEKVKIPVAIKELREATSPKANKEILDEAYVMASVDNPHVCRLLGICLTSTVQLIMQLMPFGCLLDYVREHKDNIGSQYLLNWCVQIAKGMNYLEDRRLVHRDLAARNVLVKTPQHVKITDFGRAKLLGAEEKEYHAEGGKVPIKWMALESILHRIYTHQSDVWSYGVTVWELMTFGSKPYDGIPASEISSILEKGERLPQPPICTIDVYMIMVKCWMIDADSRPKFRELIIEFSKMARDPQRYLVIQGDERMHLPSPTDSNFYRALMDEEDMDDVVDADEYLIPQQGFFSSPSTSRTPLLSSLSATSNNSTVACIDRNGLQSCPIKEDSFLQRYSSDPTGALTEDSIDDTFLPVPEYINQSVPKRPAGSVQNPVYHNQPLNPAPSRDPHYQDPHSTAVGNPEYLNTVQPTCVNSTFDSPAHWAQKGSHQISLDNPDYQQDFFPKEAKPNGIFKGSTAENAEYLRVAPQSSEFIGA

Row | EC50 | Structure (SMILES)
1 | 1160 nM and 851 nM | CC[C@@H](C)n1nc(N2CC3(COC3)C2)c2cnc(Nc3ccnc(N4CC[C@](C)(O)[C@H](F)C4)n3)cc21
2 | 431 nM | CC(C)n1nc(N2CCC3(COC3)C2)c2cnc(Nc3ccnc(-c4cnn(S(=O)(=O)C5CC5)c4)n3)cc21
3 | 569 nM | CCC(C)n1nc(N2CCCC2=O)c2cnc(Nc3ccnc(N4CCC(C)(O)CC4)n3)cc21 (stereo unspecified)
4 | 208 nM | CCC(C)n1nc(N2CCNC2=O)c2cnc(Nc3ccnc(N4CC[C@H](O)[C@H](F)C4)n3)cc21 (stereo partly specified)
5 | 1840 nM | CC(C)n1nc(N2CCOCC2)c2cnc(Nc3ccnc(-c4cnn(CC5CC5)c4)n3)cc21
6 | 951 nM | CC(C)Nc1nn(C(C)C)c2cc(Nc3ccnc(-c4cnn(S(=O)(=O)C5CC5)c4)n3)ncc12
7 | 696 nM | CCC(C)n1nc(N2CC[C@H](O)C2=O)c2cnc(Nc3ccnc(-c4cnn(S(=O)(=O)C5CC5)c4)n3)cc21 (stereo partly specified)
8 | 699 nM | CC(n1nc(N2CC3(COC3)C2)c2cnc(Nc3ccnc(-c4cnn(S(=O)(=O)C5CC5)c4)n3)cc21)C(F)(F)F (stereo unspecified)
9 | 499 nM | CC(C)n1nc(N2CCCC2)c2cnc(Nc3ccnc(N4CCC(O)C(C)(C)C4)n3)cc21 (stereo unspecified)
10 | 1200 nM | CC(C)n1nc(NCC(C)(C)O)c2cnc(Nc3ccnc(-c4cnn(S(=O)(=O)C5CC5)c4)n3)cc21
11 | 371 nM | CC[C@H](C)n1nc(N2CC[C@H](O)C2)c2cnc(Nc3ccnc(N4CC[C@](C)(O)[C@H](F)C4)n3)cc21
12 | 2520 nM | CC(C)n1nc(N2CC(C(=O)N3CC[C@@H](O)C3)C2)c2cnc(Nc3ccnc(-c4cnn(S(=O)(=O)C5CC5)c4)n3)cc21
13 | 348 nM | CC[C@H](C)n1nc(N2CC3(COC3)C2)c2cnc(Nc3ccnc(N4CC[C@@H](O)[C@@H](F)C4)n3)cc21
14 | 1090 nM | CCC(C)n1nc(N2CCN(C(=O)[C@@H](C)O)CC2)c2cnc(Nc3ccnc(-c4cnn(S(=O)(=O)C5CC5)c4)n3)cc21 (stereo partly specified)
15 | 2200 nM | CCC(C)n1nc(N2CC[C@H](C(N)=O)C2)c2cnc(Nc3ccnc(N4CCC(C)(O)CC4)n3)cc21 (stereo partly specified)
16 | 765 nM | CC(C)n1nc(N2CCCNC2=O)c2cnc(Nc3ccnc(-c4cnn(S(=O)(=O)C5CC5)c4)n3)cc21
17 | 193 nM | CC(C)n1nc(N2CC(C(=O)NCC(F)(F)F)C2)c2cnc(Nc3ccnc(-c4cnn(S(=O)(=O)C5CC5)c4)n3)cc21
18 | 1790 nM | CC(C)n1nc(N2CCC3(CNC(=O)C3)C2)c2cnc(Nc3ccnc(-c4cnn(S(=O)(=O)C5CC5)c4)n3)cc21 (stereo unspecified)
19 | 1410 nM | CC(C)n1nc(N2CCOCC2)c2cnc(Nc3ccnc(N4CCC(O)C(C)(C)C4)n3)cc21 (stereo unspecified)

Row | EC50 | Structure (SMILES)
20 | 271 nM | CC(C)n1nc(N2CC(CO)C2)c2cnc(Nc3ccnc(-c4cnn(S(=O)(=O)C5CC5)c4)n3)cc21
21 | 4620 nM | CC(Nc1nn(C(C)C)c2cc(Nc3ccnc(-c4cnn(S(=O)(=O)C5CC5)c4)n3)ncc12)C(N)=O (stereo unspecified)
22 | 4050 nM | CC[C@@H](C)n1nc(N2CC[C@@H](O)C2)c2cnc(Nc3ccnc(N4CC[C@](C)(C(N)=O)C4)n3)cc21
23 | 283 nM | CC(C)n1nc(N2CC(C(=O)N3CC4CCC(C3)O4)C2)c2cnc(Nc3ccnc(-c4cnn(S(=O)(=O)C5CC5)c4)n3)cc21
24 | 272 nM | CCS(=O)(=O)n1cc(-c2nccc(Nc3cc4c(cn3)c(NC3CCOC3)nn4C(C)C)n2)cn1 (stereo unspecified)
25 | > 10000 nM | CC(C)n1nc(N2CC(C(=O)NC3CC(O)C3)C2)c2cnc(Nc3ccnc(-c4cnn(S(=O)(=O)C5CC5)c4)n3)cc21 (stereo unspecified)
26 | 241 nM | CC(C)n1nc(N2CCOC(CO)C2)c2cnc(Nc3ccnc(-c4cnn(S(=O)(=O)C5CC5)c4)n3)cc21 (stereo unspecified)
27 | 650 nM | CNC(=O)C1CN(c2nn(C(C)C)c3cc(Nc4ccnc(-c5cnn(S(=O)(=O)C6CC6)c5)n4)ncc23)C1
28 | 201 nM | CC(C)n1nc(N2CC[C@H](O)C2)c2cnc(Nc3ccnc(-c4cnn(S(=O)(=O)C5CC5)c4)n3)cc21
29 | 835 nM | CC(C)n1nc(N2CC[S+]([O-])CC2)c2cnc(Nc3ccnc(-c4cnn(S(=O)(=O)C5CC5)c4)n3)cc21
30 | 1110 nM | CCC(C)n1nc(N2CC[C@@H](O)C2)c2cnc(Nc3ccnc(N4CCC(S(C)(=O)=O)CC4)n3)cc21 (stereo partly specified)
31 | 163 nM | CC(C)n1nc(N2CCC(C(=O)N(C)C)C2)c2cnc(Nc3ccnc(-c4cnn(S(=O)(=O)C5CC5)c4)n3)cc21 (stereo unspecified)
32 | 945 nM | CC(C)n1nc(N(C)CC(O)CO)c2cnc(Nc3ccnc(-c4cnn(S(=O)(=O)C5CC5)c4)n3)cc21 (stereo unspecified)
33 | 7170 nM | CCC(C)n1nc(N2CC[C@@H](C(N)=O)C2)c2cnc(Nc3ccnc(N4CCC(C)(O)CC4)n3)cc21 (stereo partly specified)
34 | 1830 nM | CC(C)n1nc(N2CC(C(=O)N3CC[C@@H](CO)C3)C2)c2cnc(Nc3ccnc(-c4cnn(S(=O)(=O)C5CC5)c4)n3)cc21
35 | 4620 nM | CC(C)n1nc(NC(C)(C)C)c2cnc(Nc3ccnc(-c4cnn(S(=O)(=O)C5CC5)c4)n3)cc21
36 | 216 nM | CCC(C)n1nc(N2CC3(COC3)C2)c2cnc(Nc3ccnc(-c4cnn(S(=O)(=O)C5CC5)c4)n3)cc21 (stereo unspecified)
37 | 740 nM | CC(C)n1nc(N2CCC3(CCNC3=O)C2)c2cnc(Nc3ccnc(-c4cnn(S(=O)(=O)C5CC5)c4)n3)cc21 (stereo unspecified)
38 | 344 nM | CC(C)n1nc(N2CC(C(=O)N3CCOCC3)C2)c2cnc(Nc3ccnc(-c4cnn(S(=O)(=O)C5CC5)c4)n3)cc21

Row | EC50 | Structure (SMILES)
39 | > 10000 nM | COC1CCN(c2nccc(Nc3cc4c(cn3)c(N)nn4C[C@H]3CC[C@H](N)CC3)n2)CC1
40 | 881 nM | CCC(C)n1nc(N2CC3(COC3)C2)c2cnc(Nc3ccnc(N4CCC(C)(O)CC4)n3)cc21 (stereo unspecified)
41 | 159 nM | CC(C)n1nc(N2CC(C(=O)N(C)C)C2)c2cnc(Nc3ccnc(-c4cnn(S(=O)(=O)C5CC5)c4)n3)cc21
42 | 2080 nM | CC(C)n1nc(NC(=O)C(C)(C)O)c2cnc(Nc3ccnc(-c4cnn(S(=O)(=O)C5CC5)c4)n3)cc21
43 | 149 nM | CC[C@@H](C)n1nc(N2CC3(COC3)C2)c2cnc(Nc3ccnc(N4CC[C@@H](O)[C@@H](F)C4)n3)cc21
44 | 1110 nM | CC(C)n1nc(NC2CCOCC2)c2cnc(Nc3ccnc(-c4cnn(S(=O)(=O)C5CC5)c4)n3)cc21
45 | 110 nM | CC(C)n1ncc2cnc(Nc3ccnc(N4CCC(O)C(C)(C)C4)n3)cc21 (stereo unspecified)
46 | 1160 nM | CC(C)n1nc(N2CC(C(=O)N3CC[C@H](CO)C3)C2)c2cnc(Nc3ccnc(-c4cnn(S(=O)(=O)C5CC5)c4)n3)cc21
47 | 3590 nM | CC(C)Oc1nn(C(C)C)c2cc(Nc3ccnc(-c4cnn(S(=O)(=O)C5CC5)c4)n3)ncc12
48 | 263 nM | CCC(C)n1nc(N2CC[C@@H](O)C2)c2cnc(Nc3ccnc(N4CC[C@H](O)[C@H](F)C4)n3)cc21 (stereo partly specified)
49 | 9130 nM | CC[C@@H](C)n1nc(N2CC[C@@H](O)C2)c2cnc(Nc3ccnc(N4CCC5(CC4)CNC(=O)CO5)n3)cc21
50 | 620 nM | CC(C)n1nc(N2CC(C)(CO)C2)c2cnc(Nc3ccnc(-c4cnn(S(=O)(=O)C5CC5)c4)n3)cc21
51 | 1010 nM | CCN1CCN(c2nn(C(C)C)c3cc(Nc4ccnc(-c5cnn(S(=O)(=O)C6CC6)c5)n4)ncc23)CC1
52 | 484 nM | CCNC(=O)C1CN(c2nn(C(C)C)c3cc(Nc4ccnc(-c5cnn(S(=O)(=O)C6CC6)c5)n4)ncc23)C1
53 | 798 nM | CC(C)n1nc(OC2CCOC2)c2cnc(Nc3ccnc(-c4cnn(S(=O)(=O)C5CC5)c4)n3)cc21 (stereo unspecified)
54 | 929 nM | CCN1CCN(c2nn(C(C)C)c3cc(Nc4ccnc(-c5cnn(S(=O)(=O)C6CC6)c5)n4)ncc23)C1=O
55 | 1210 nM | CC(C)n1nc(N2CC3CCC(C2)O3)c2cnc(Nc3ccnc(-c4cnn(S(=O)(=O)C5CC5)c4)n3)cc21
56 | 537 nM | CCC(C)n1nc(N2CC(C(C)O)C2)c2cnc(Nc3ccnc(-c4cnn(S(=O)(=O)C5CC5)c4)n3)cc21 (stereo unspecified)
